Data reported in ChEMBL document CHEMBL3507680, “University of Dundee, Gates Library screen for HepG2 cell viability”.

Experiment: Human HepG2 cell viability assay in 384 well format
Format: toxicity, cell-based
Design: dose 125 nL, time 70.5 hour; cytotoxicity at 70.5 h: concentration not given beside the values
Conditions: HepG2 cells, read-out: Inhibition

| Structure (SMILES) | cytotoxicity at 70.5 h [%] |
| --- | --- |
| CC1(C(=O)N2CCOCC2)CN(C2CCCCC2)CCO1 (stereo unspecified) | 0.715 |
| OC1(CNc2ccc(-c3nc(C4CC4)no3)cn2)CCCCC1 | 22 |
| Cc1c(C(=O)N2C[C@@H](CN(C)CCO)[C@@H](CO)C2)sc2ccccc12 | -9.44 |
| Cc1cccc(CNC(Cn2cncn2)c2ccccc2)c1C (stereo unspecified) | 1.21 |
| COCC(=O)Nc1nn(Cc2ccc(F)cc2)cc1Cl | -5.91 |
| CCn1ncc2c1CCCC2NCc1ccccc1N1CCOCC1 (stereo unspecified) | 7.21 |
| O=C1[C@H]2CN(S(=O)(=O)c3ccccc3)C[C@H]2CN1Cc1cccnc1 | -15.6 |
| COc1cccc(S(=O)(=O)N2CCn3cnc(COCC4CC4)c3C2)c1 | -10 |
| CC(C)N1CCc2onc(Cn3cccn3)c2C1 | -5.3 |
| COc1ccc(C(=O)NCc2cc(N3CCOCC3)ncn2)o1 | 17.5 |
| Cc1nn(C)c(C)c1CC(=O)NCc1ccnc(OC2CCCC2)c1 | -5.31 |
| O=c1cnc2ccccc2n1CCCn1cccn1 | 24.6 |
| CC(C)(C)n1ncc2c1CCCC2NCc1cccc2c1OCCO2 (stereo unspecified) | -7.2 |
| COc1ccc(F)cc1CN1CCCC(c2cc(C(N)=O)[nH]n2)C1 (stereo unspecified) | -10.6 |
| Cc1noc(C(C)C)c1C(=O)NCC1CCN(c2ccccc2)C1 (stereo unspecified) | 6.36 |
| Cc1ccc(CN2CCOC3(CCN(C(=O)C4CCOC4)CC3)C2)cc1 (stereo unspecified) | -1.7 |
| CNC(=O)c1ccc(OC)c(NCc2noc(-c3ccsc3)n2)c1 | -11.3 |
| c1ccc(C2CCCN2C2CSCCSC2)nc1 (stereo unspecified) | -4.87 |
| O=C(c1ccc(O)c(Cl)c1)N1C[C@@H](CN2CCCCCC2)[C@@H](CO)C1 | 3.21 |
| Cc1nc(C)n(CC2CCCCN2CCCS(C)(=O)=O)n1 (stereo unspecified) | 9.04 |
| COc1ccnc(N2CCCN(Cc3ncc(C(C)C)o3)CC2)n1 | -4.8 |

| Structure (SMILES) | cytotoxicity at 70.5 h [%] |
| --- | --- |
| CN(C)C(=O)N1C[C@@H]2CC[C@H](C1)N(Cc1ccc3nsnc3c1)C2 | -5.73 |
| Cc1cc(NC(=O)N2CCN(c3nc(C)c(C)s3)CC2)no1 | 21.7 |
| CCCC(C#N)NC(=O)Cc1csc(CC)n1 (stereo unspecified) | -0.509 |
| NC(=O)CCN(CC(=O)NCc1ccccn1)c1ccc(F)cc1 | -9.69 |
| CCc1ccc(CN2CC[C@@H]3CN(S(C)(=O)=O)CCO[C@@H]3C2)o1 | -3.27 |
| Cn1ccnc1CN1CCC2(CC1)CC(Nc1ccccn1)CO2 (stereo unspecified) | -2.46 |
| CCS(=O)(=O)N1CCc2c(COCCN(C)C)cncc2C1 | 2.79 |
| CCc1cnccc1C(=O)NC1CCN(C(=O)OC)CC1 | 24.5 |
| Fc1ccc(CNC2CCN(CCc3ccncc3)CC2)cc1F | -3.84 |
| CCc1cc(NCc2ccccc2CN2CCCC2)n2ncnc2n1 | 29.1 |
| CCc1cnc(NCC(c2cccnc2)N2CCOCC2)nc1 (stereo unspecified) | -1.2 |
| Cc1ccc(CCN2CCCC23Cc2ccccc2CNC3=O)cc1 (stereo unspecified) | -4.38 |
| O=C(CN1CCN(c2ccc3nncn3n2)CC1)NC1CCCC1 | 1.25 |
| Cc1cccn2c(NC(C)(C)C)c(C3CCN(C(=O)C4CC4)CC3)nc12 | -6.96 |
| Cc1ccc(-c2nnc(CN3CCCCC3Cn3cncn3)o2)cc1 (stereo unspecified) | -12.6 |
| CC(Nc1ccc(CCN2CCCCC2)cc1)C(=O)N(C)CCC#N (stereo unspecified) | -6.46 |
| COCCn1cnc(-c2nc(C(=O)N3CCOCC3)c3ccccn23)c1 | 5.18 |
| Cc1noc(-c2cccnc2N(C)Cc2cc(C)on2)n1 | -7.15 |
| CN(Cc1noc(C(C)(C)C)n1)Cc1ccccc1N1CCCC1 | -8.02 |
| CC(C)CC1CC(=O)Nc2c1cnn2Cc1ccco1 (stereo unspecified) | -22.8 |
| CCOCC(=O)NCCc1nc(C)cc(C(F)(F)F)n1 | -10.8 |

| Structure (SMILES) | cytotoxicity at 70.5 h [%] |
| --- | --- |
| Cc1nccn1C1(C(=O)O)CCN(Cc2ccc3nsnc3c2)CC1 | -7 |
| Cc1nc(C2CCCN2CCCS(N)(=O)=O)no1 (stereo unspecified) | 17 |
| N#Cc1cccc(CNc2cc(CO)ccc2Cl)c1 | -15.1 |
| COCCN1CCC(NC(=O)C2(c3cc(C)cc(C)c3)CC2)CC1 | -11.3 |
| CC(=O)N1CCN(c2cc(-c3ccccc3)nc3c(C)c(C)nn23)CC1 | 0.357 |
| Nc1nc(CCC(=O)N2C[C@@H](CN3CCCC3)C[C@H](CO)C2)n[nH]1 | -6.67 |
| O=C(c1ccoc1)N(Cc1cccnc1)C1CC1 | -21.3 |
| O=C(c1ccno1)N1CCC2(CC(=O)N(c3ccc4c(c3)OCO4)C2)C1 (stereo unspecified) | -0.613 |
| Clc1snnc1CN1CCCC1Cn1cncn1 (stereo unspecified) | 53.6 |
| COc1ccccc1CNc1cnn(CC(F)F)c1 | 1.56 |
| CCn1cc(C2=CCN(CCCOc3ccccc3)CC2)cn1 | 0.137 |
| Cc1nn(-c2ccccc2)c(C)c1-c1ccnc(N2CCCOCC2)n1 | -3.17 |
| O=C(N1CCCC1)C1(Cc2ccc(-c3cccs3)cc2)CCNC1 (stereo unspecified) | 2.43 |
| Cc1ccc(C(=O)N2C[C@@H]3CCN(c4cccnc4)C[C@@H]3C2)cn1 | -12.4 |
| Nc1cc(CCCNC(=O)NC2CC2)nn1-c1ccccc1 | -2.83 |
| Cc1cnc2c(S(=O)(=O)N(C)C3CCS(=O)(=O)C3)cccc2c1 (stereo unspecified) | -16.4 |
| CN1CCN(c2nsc(-c3cccnc3)c2C#N)CC1 | -4.14 |
| O=C1CO[C@@H]2CN(S(=O)(=O)c3ccccc3)C[C@H]2N1CC1CC1 | -13.1 |
| CCn1nc(C)c2nc(C(C)C)nc(N3CCN(C)CC3)c21 | 29.8 |
| CC1CCC(NS(=O)(=O)CC(=O)Nc2ccc(N3CCCC3)cn2)CC1 (stereo unspecified) | -5.53 |
| CS(=O)(=O)NCc1cncc2c1CCN(C(=O)N1CCCC1)C2 | 11.1 |

| Structure (SMILES) | cytotoxicity at 70.5 h [%] |
| --- | --- |
| Cc1cccc(C(=O)NC2CCN(c3cnn(C)c3)C2=O)c1C (stereo unspecified) | -2.07 |
| Cc1ccc([C@@H]2CN(S(=O)(=O)Cc3ccccc3)C[C@H]2N(C)C)cc1 | 1.88 |
| CN1CC(C(=O)NC2(c3ccc(Cl)cc3)CCOCC2)CC1=O (stereo unspecified) | 2.23 |
| CN(Cc1cccnc1)C1CC2(CCN(Cc3cccnc3)CC2)C1 | -13.8 |
| COC(=O)c1cccc(C(=O)N2CCN(c3ccc(Cl)cc3)CC2)n1 | -6.13 |
| CCC(CC)C(=O)N1CCN(Cc2cc(=O)c3ccccc3[nH]2)CC1 | 7.24 |
| Cc1cc(C)c2c(NCC3(O)CCCCC3)ncnc2n1 | -2.73 |
| Cc1ccc(CN2CCC(CNC(=O)Cn3cncn3)CC2)cc1 | -6.33 |
| CCn1nnc2c1C(COC)CN(C(=O)Cc1ccccn1)C2 (stereo unspecified) | -15.3 |
| CC(C)c1nnc2n1CCN(C(=O)c1cccc(OCC(N)=O)c1)C2 | -2.06 |
| O=C([C@@H]1CCO[C@@H]2CCN(Cc3ccco3)C[C@H]21)N1CCCCO1 | -9.33 |
| CSc1nnc(C2CCN(C(=O)N3CCCC3)CC2)n1C | -9.43 |
| OC1CCN(Cc2c(C3CCCNC3)[nH]c3ncccc23)CC1 (stereo unspecified) | -22.4 |
| Cc1ccc(NC2CCN(C(=O)c3ccc(F)c(C)c3)CC2)nn1 | 14.1 |
| CCOC(C)C(=O)Nc1cc(S(=O)(=O)NC2CC2)ccc1F (stereo unspecified) | 6.35 |
| O=C1CC2(CCCCN2CC2CC2)CN1c1ccccc1 (stereo unspecified) | -3.65 |
| O=C(NCC1CCOCC1)c1cc(-c2cccnc2)c2cnccc2n1 | -8.58 |
| Cc1noc(C)c1CNc1cccc(C(=O)N2CCCC(O)C2)c1 (stereo unspecified) | -9.24 |
